From paper PMC7377239, “Cardiovascular Effects of Polychlorinated Biphenyls and Their Major Metabolites” (Environmental Health Perspectives, 2020)
Like-named read-outs stand apart in the source and are kept apart here.

Assays:
HUVECs = assay: High-content imaging cytotoxicity in HUVECs, 24 h; type: cell-based, human; details: Homo sapiens, HUVEC, 24 h, HUVECs; for viability at 0.01 µM / activity at 0.01 µM / viability at 0.1 µM / activity at 0.1 µM / viability at 1 µM / activity at 1 µM / viability at 10 µM / activity at 10 µM / viability at 100 µM / activity at 100 µM: 0.00 µM = 100.00; for viability at 0.1 µM / activity at 0.1 µM: 0.10 µM; for minimal effective concentration: top concentration 100.00 µM
Procedure, shortened: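 Read-out: multiwavelength high-content imaging of Hoechst 33342, MitoTracker Orange and calcein AM after 24 h compound exposure of confluent HUVEC monolayers. POD values were set using a one-SD cutoff from vehicle (0.5% DMSO) means; with no concentration–response, 100μM was assigned as no observable adverse effect level.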

[1] = test system: iCell cardiomyocytes (human iPSC-derived cardiomyocytes); assay: High-content imaging of cytotoxicity and mitochondrial integrity in iPSC-CMs; type: cell-based; details: Homo sapiens, Cardiomyocyte; for viability at 0.01 µM / activity at 0.01 µM / viability at 0.1 µM / activity at 0.1 µM / viability at 1 µM / activity at 1 µM / viability at 10 µM / activity at 10 µM / viability at 100 µM / activity at 100 µM: 0.00 µM = 100.00; for viability at 0.1 µM / activity at 0.1 µM: 0.10 µM
Procedure, shortened: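 This assay measured cytotoxicity and mitochondrial integrity in iPSC cardiomyocytes held in 40μL maintenance medium. After compound exposure, a 2× staining solution with Hoechst 33342 (4μg/mL) and MitoTracker™ Orange (0.4μM) was applied for 15 min at 37°C. Cells were washed, fixed with 3.7% formaldehyde, imaged on DAPI and Cy3 channels, and scored in MetaXpress®.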

[2] = 24 hr, read-out: huvec.cyto.24hr
[3] = 24 hr, read-out: huvec.mito.24hr
[4] = 24 hr, read-out: huvec.mitoint.24hr
[5] = 24 hr, read-out: huvec.nma.24hr
[6] = 24 hrs, read-out: huvec.tc.24hrs
[7] = 1.5 h, 90min, read-out: cm.cam.90min
[8] = 1.5 h, 90min, read-out: cm.mii.90min
[9] = 1.5 h, 90min, read-out: cm.mito.90min
[10] = 1.5 h, 90min, read-out: cm.tc.90min
[11] = 24 h, 24hrs, read-out: cm.cam.24hrs
[12] = 24 h, 24hrs, read-out: cm.mii.24hrs
[13] = 24 h, 24hrs, read-out: cm.mito.24hrs
[14] = 24 h, 24hrs, read-out: cm.tc.24hrs

Oc1cc(Cl)c(-c2cc(Cl)ccc2Cl)cc1Cl [4-OH PCB52]
viability at 0.01 µM (HUVECs; [2]): 94.4% | activity at 0.01 µM (HUVECs; [3]): 93.5% | activity at 0.01 µM (HUVECs; [4]): 103% | activity at 0.01 µM (HUVECs; [5]): 98.9% | viability at 0.1 µM (HUVECs; [2]): 120% | activity at 0.1 µM (HUVECs; [3]): 118% | activity at 0.1 µM (HUVECs; [4]): 104% | activity at 0.1 µM (HUVECs; [5]): 94.5% | viability at 1 µM (HUVECs; [2]): 93.9% | activity at 1 µM (HUVECs; [3]): 93.9% | activity at 1 µM (HUVECs; [4]): 111% | activity at 1 µM (HUVECs; [5]): 98% | viability at 10 µM (HUVECs; [2]): 46.9% | activity at 10 µM (HUVECs; [3]): 33.2% | activity at 10 µM (HUVECs; [4]): 15.3% | activity at 10 µM (HUVECs; [5]): 61.6% | viability at 100 µM (HUVECs; [2]): 72% | activity at 100 µM (HUVECs; [3]): 0.65% | activity at 100 µM (HUVECs; [4]): 5.52% | activity at 100 µM (HUVECs; [5]): 119% | minimal effective concentration (HUVECs; 24 hr, read-out: huvec.cyto.24hr POD): 1 µM | minimal effective concentration (HUVECs; 24 hr, read-out: huvec.mito.24hr POD): 1.1 µM | minimal effective concentration (HUVECs; 24 hr, read-out: huvec.mitoint.24hr POD): 2.32 µM | minimal effective concentration (HUVECs; 24 hr, read-out: huvec.nma.24hr POD): 100 µM | viability at 0.01 µM (HUVECs; [6]): 94.4% | viability at 0.1 µM (HUVECs; [6]): 120% | viability at 1 µM (HUVECs; [6]): 93.9% | viability at 10 µM (HUVECs; [6]): 46.9% | viability at 100 µM (HUVECs; [6]): 77.5% | minimal effective concentration (HUVECs; 24 hrs, read-out: huvec.tc.24hrs POD): 1 µM | viability at 0.01 µM [1, 7]: 89.4% | activity at 0.01 µM [1, 8]: 103% | activity at 0.01 µM [1, 9]: 87.5% | viability at 0.01 µM [1, 10]: 89.4% | viability at 0.1 µM [1, 7]: 103% | activity at 0.1 µM [1, 8]: 101% | activity at 0.1 µM [1, 9]: 103% | viability at 0.1 µM [1, 10]: 104% | viability at 1 µM [1, 7]: 97.9% | activity at 1 µM [1, 8]: 97.3% | activity at 1 µM [1, 9]: 97.9% | viability at 1 µM [1, 10]: 98.1% | viability at 10 µM [1, 7]: 95.1% | activity at 10 µM [1, 8]: 116% | activity at 10 µM [1, 9]: 94.7% | viability at 10 µM [1, 10]: 94.9% | viability at 100 µM [1, 7]: 0% | activity at 100 µM [1, 8]: 7.54% | activity at 100 µM [1, 9]: 0.0231% | viability at 100 µM [1, 10]: 0.0461% | minimal effective concentration ([1]; 1.5 h, 90min, read-out: cm.cam.90min POD): 8.86 µM | minimal effective concentration ([1]; 1.5 h, 90min, read-out: cm.mii.90min POD): 45.7 µM | minimal effective concentration ([1]; 1.5 h, 90min, read-out: cm.mito.90min POD): 8.61 µM | minimal effective concentration ([1]; 1.5 h, 90min, read-out: cm.tc.90min POD): 8.75 µM | viability at 0.01 µM [1, 11]: 99.2% | activity at 0.01 µM [1, 12]: 98.8% | activity at 0.01 µM [1, 13]: 99.4% | viability at 0.01 µM [1, 14]: 99.5% | viability at 0.1 µM [1, 11]: 102% | activity at 0.1 µM [1, 12]: 93.3% | activity at 0.1 µM [1, 13]: 104% | viability at 0.1 µM [1, 14]: 103% | viability at 1 µM [1, 11]: 96.1% | activity at 1 µM [1, 12]: 102% | activity at 1 µM [1, 13]: 94.1% | viability at 1 µM [1, 14]: 96% | viability at 10 µM [1, 11]: 101% | activity at 10 µM [1, 12]: 88.3% | activity at 10 µM [1, 13]: 102% | viability at 10 µM [1, 14]: 101% | viability at 100 µM [1, 11]: 10.2% | activity at 100 µM [1, 12]: 193% | activity at 100 µM [1, 13]: 20.3% | viability at 100 µM [1, 14]: 49.7% | minimal effective concentration ([1]; 24 h, read-out: cm.cam.24hrs POD): 32.7 µM | minimal effective concentration ([1]; 24 h, read-out: cm.mii.24hrs POD): 65.1 µM | minimal effective concentration ([1]; 24 h, read-out: cm.mito.24hrs POD): 36.7 µM | minimal effective concentration ([1]; 24 h, read-out: cm.tc.24hrs POD): 41.4 µM
